Measured values taken from patent US20080200473A1, “Imidazo [1,2-a]Pyridine Compounds, Compositions, Uses and Methods Thereto” (Ferrer Internacional, S.A., priority 2004, published 2008).

What was measured:
α1-GABAA receptor = experiment: Ligand-binding assay, competitive with radiolabeled flumazenil, cerebellum membranes; conditions: Affinity for α1-GABAA receptor, rat cerebellum membranes, radiolabeled flumazenil 1 nM; for % Inhibition 10^−5M: 10^-5M test compound; for % Inhibition 10^−7M: 10^-7M test compound
α2-GABAA receptor = experiment: Ligand-binding assay, competitive with radiolabeled flumazenil, spinal cord membranes; conditions: Affinity for α2-GABAA receptor, rat spinal cord membranes, radiolabeled flumazenil 1 nM; for % Inhibition 10^−5M: 10^-5M test compound; for % Inhibition 10^−7M: 10^-7M test compound
mice = experiment: In vivo predictive sedation-hypnosis test (inhibition of traveled distance); set-up: species or system mouse; conditions: male CD1 mice; single equimolecular intraperitoneal doses; traveled distance over 30 min after dosing (first 5 min discarded) versus control

Structure (SMILES): Cc1ccc(-c2nc3ccc(C)cn3c2CNC(=O)c2nc(C)oc2C)cc1 [Example 83, 2,5-Dimethyl-oxazole-4-carboxylic acid (6-methyl-2-p-tolyl-imidazo[1,2-a]pyridin-3-ylmethyl)-amide]
- % Inhibition 10^−5M (α1-GABAA receptor): 100.0%
- % Inhibition 10^−7M (α1-GABAA receptor): 93.6%
- % Inhibition 10^−5M (α2-GABAA receptor): 93.2%
- % Inhibition 10^−7M (α2-GABAA receptor): 71.1%
- % Inhibition Motor Activity (mice): 93.22%

Structure (SMILES): Cc1ccc(-c2nc3ccc(C)cn3c2CNC(=O)c2cnccn2)cc1 [Example 89, Pyrazine-2-carboxylic acid (6-methyl-2-p-tolyl-imidazo[1,2-a]pyridin-3-ylmethyl)-amide]
- % Inhibition 10^−5M (α1-GABAA receptor): 100.3%
- % Inhibition 10^−7M (α1-GABAA receptor): 88.2%
- % Inhibition 10^−5M (α2-GABAA receptor): 98.2%
- % Inhibition 10^−7M (α2-GABAA receptor): 54.5%
- % Inhibition Motor Activity (mice): 74.65%

Structure (SMILES): Cc1ccc(-c2nc3ccc(C)cn3c2CNC(=O)c2c(C)noc2C)cc1 [Example 90, 3,5-Dimethyl-isoxazole-4-carboxylic acid (6-methyl-2-p-tolyl-imidazo[1,2-a]pyridin-3-ylmethyl)-amide]
- % Inhibition 10^−5M (α1-GABAA receptor): 84.5%
- % Inhibition 10^−7M (α1-GABAA receptor): 0.0%
- % Inhibition 10^−5M (α2-GABAA receptor): 31.8%
- % Inhibition 10^−7M (α2-GABAA receptor): 0.0%
- % Inhibition Motor Activity (mice): 82.12%

Structure (SMILES): Cc1ccc(-c2nc3ccc(C)cn3c2CN(C)C(=O)c2cscn2)cc1 [Example 94, Thiazole-4-carboxylic acid methyl-(6-methyl-2-p-tolyl-imidazo[1,2-a]pyridin-3-ylmethyl)-amide]
- % Inhibition 10^−5M (α1-GABAA receptor): 99.5%
- % Inhibition 10^−7M (α1-GABAA receptor): 78.5%
- % Inhibition 10^−5M (α2-GABAA receptor): 94.5%
- % Inhibition 10^−7M (α2-GABAA receptor): 33.2%
- % Inhibition Motor Activity (mice): 89.33%

Structure (SMILES): Cc1ccc(-c2nc3ccc(C)cn3c2CC(=O)N(C)C)cc1 [Zolpidem, reference compound]
- % Inhibition 10^−5M (α1-GABAA receptor): 94.4%
- % Inhibition 10^−7M (α1-GABAA receptor): 73.6%
- % Inhibition 10^−5M (α2-GABAA receptor): 78.2%
- % Inhibition 10^−7M (α2-GABAA receptor): 20.1%
- % Inhibition Motor Activity (mice): 90.80%
